Laboratory results as given in PMC12030678, “Investigations of In Vitro Anti-Acetylcholinesterase, Anti-Diabetic, Anti-Inflammatory, and Anti-Cancer Efficacy of Garden Cress (Lepidium sativum Linn.) Seed Extracts, as Well as In Vivo Biochemical and Hematological Assays” (Pharmaceutics, 2025).
Values after ≈ are worked out from the molar mass of the structure shown.

Key:
α-amylase enzyme = biological target: T1, α-amylase enzyme (Sus scrofa, UniProt P00690); assay: α-Amylase inhibition (DNSA method); type: biochemical; conditions: at 100 µg/mL
T1 sequence (P00690 16-511): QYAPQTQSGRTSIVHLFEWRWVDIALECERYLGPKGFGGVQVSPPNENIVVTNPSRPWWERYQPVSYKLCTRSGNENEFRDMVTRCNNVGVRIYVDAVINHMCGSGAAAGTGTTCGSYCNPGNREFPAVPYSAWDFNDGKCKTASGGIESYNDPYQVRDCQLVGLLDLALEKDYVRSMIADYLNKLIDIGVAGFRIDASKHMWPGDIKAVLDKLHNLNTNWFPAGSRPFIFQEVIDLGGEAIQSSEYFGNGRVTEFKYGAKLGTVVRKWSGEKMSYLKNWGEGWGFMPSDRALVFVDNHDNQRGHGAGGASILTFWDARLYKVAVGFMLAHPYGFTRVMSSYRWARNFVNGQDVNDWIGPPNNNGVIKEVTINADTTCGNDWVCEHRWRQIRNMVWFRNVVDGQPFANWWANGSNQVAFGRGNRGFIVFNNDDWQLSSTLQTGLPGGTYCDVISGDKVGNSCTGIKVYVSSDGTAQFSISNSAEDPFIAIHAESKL
Procedure: Anti-Alzheimer's activity
In this study, we assessed the inhibition percentage of the acetylcholinesterase (AChE)
This assay involved calculating the inhibition percentage (%) of α-amylase enzyme using
The mixture was then left at
temperature and diluted with 5 mL of distilled water.

α-glucosidase enzyme = α-glucosidase enzyme (Saccharomyces cerevisiae, UniProt P53341); assay: α-Glucosidase inhibition (pNPG); type: biochemical; conditions: at 100 µg/mL
[1] = ABTS radical scavenging activity
Procedure: (§1) Antioxidant, scavenging, anti-Alzheimer, anti-diabetic, anti-arthritic, anti-inflammatory, cytotoxic, and enzymatic activities were assessed according to the proposed methods detailed in the Supplementary File. All biological activities were assessed in triplicate for all studied extracts. […]
An antioxidant substance capable of donating a hydrogen atom to a solution containing DPPH- can reduce the stable free radical, causing the solution to change color from violet to pale yellow. […]
Two milliliters of a DPPH […]
solution (100 µM) in ethanol were mixed with 2 mL of the sample (at each concentration). […]
For the control, 2 mL of ethanol was added instead of the sample and run simultaneously with the test. Ascorbic acid was used at the same concentrations as a positive control. […]
(7 mM) and potassium persulfate solution (2.4 mM). The working solution was prepared by mixing the two stock solutions in equal quantities and allowing them to react at room temperature in a dark place for 14 hours. The solution was then diluted by mixing 1 mL of ABTS solution with 60 mL of methanol to obtain an absorbance of 0.706 ± 0.01 units at 734 nm using a spectrophotometer. […] The tested samples (at each concentration) were allowed to react with 1 mL of the ABTS solution, and the absorbance was taken at 734 nm after 7 minutes using a spectrophotometer. […]

[2] = Iron reducing power (IRP); conditions: in vitro iron reducing power
Procedure: The iron reducing power was determined as µg/mL using the method proposed by Oyaizu
In brief, 1ml of the tested sample (at each concentration) was combined with
1mL of 200mM sodium phosphate buffer (pH 6.6) and 1mL of 1% potassium ferricyanide.
The mixture was then incubated at 50°C for 20 minutes, followed by the addition of 1mL of trichloroacetic acid (10%). After centrifugation at 2000rpm for 10 minutes, the upper layer solution (2.5 mL) was mixed with 2.5 mL of double deionized water and 1mL of fresh ferric chloride (0.1%). The absorbance was measured at 700nm against a blank prepared without the sample. Ascorbic acid was used at the same concentrations as a standard. A high absorbance at 700nm indicates a higher reducing power in the reaction mixture.

[3] = Total antioxidant capacity (TAC), phosphomolybdenum method; conditions: in vitro total antioxidant capacity
Procedure: The total antioxidant capacity (TAC) was determined by analyzing the green phosphate/Mo5+
[38]. Samples (at each concentration) were mixed with a reagent solution containing 0.3 N
sulfuric acid, 28 mM sodium phosphate, and 4 mM ammonium molybdate. Methanol (80%)
was used in place of the sample for the blank. The tubes were sealed and incubated in a
boiling water bath for 90 minutes. After cooling to room temperature, the absorbance was
standard. The antioxidant capacity was expressed as mg gallic acid equivalent per gram

[4] = DPPH radical scavenging activity
Procedure: as §1
The 1,1-Diphenyl-2-picryl-hydrazyl (DPPH) radical scavenging activities were evaluated using the method described by Rahman et al.. An antioxidant substance capable of donating a hydrogen atom to a solution containing DPPH- can reduce the stable free radical, causing the solution to change color from violet to pale yellow. The remaining DPPH- radical was quantified by measuring the intensity of a light-purple colored DPPH methanol solution in the visible range at 518 nm using a spectroscopic method. Two milliliters of a DPPH solution (100 µM) in ethanol were mixed with 2 mL of the sample (at each concentration).
The reaction mixture for each concentration was thoroughly vortexed and then incubated in the dark at room temperature for 30 minutes. The absorbance was then measured spectrophotometrically at 518 nm against a blank (ethanol). For the control, 2 mL of ethanol was added instead of the sample and run simultaneously with the test. Ascorbic acid was used at the same concentrations as a positive control. Percent inhibition of the DPPH free radical was calculated. […]

[5] = Nitric oxide (NO) radical scavenging activity
Procedure: Antioxidant, scavenging, anti-Alzheimer, anti-diabetic, anti-arthritic, anti-inflammatory, cytotoxic, and enzymatic activities were assessed according to the proposed methods detailed in the Supplementary File. All biological activities were assessed in triplicate for all studied extracts.

Bcl-2 = type: cell-based, human
Procedure: as §1
(§2) Cytotoxic activity and Enzymatic Assay […]
(§3) The cells were dispensed in a 96-well sterile […]
(§4) different concentrations of 10 μL of each compound or doxorubicin (positive control, in DMSO) for 48 h in a serum free medium prior to the MTT assay. […]
Corporation, following the manufacturer's instructions. Activities of Bcl-2 were measured using the Invitrogen Zymed Bcl-2 ELISA Kit (96 tests) from Invitrogen Corporation, following the manufacturer's instructions.

Caco-2 cells = assay: Cytotoxic activity, MTT assay, Caco-2; type: cell-based; conditions: Homo sapiens, 48 h, read-out: IC50 (μg/mL) Caco-2
Procedure: as §1
Cytotoxic activity and Enzymatic Assay
It will be assayed against human hepatocellular carcinoma (HepG-2), colon cancer (Caco-2), and lung cancer (A549) cells using 3-(4,5-dimethythiazol-2-yl)-2,5-diphenyl tetrazolium bromide (MTT) assay by determining the optical density (OD) at 570 nm according to the […]
as §3
different concentrations of 10 μL of each compound or doxorubicin (positive control, in DMSO) for 48 h in a serum free medium prior to the MTT assay. Subsequently, the media were carefully removed, and 40 μL of MTT (2.5 mg/mL) was added to each well and then incubated for an additional 4 h. Purple formazan dye crystals were solubilized by the addition of 200 μL of DMSO. The absorbance was measured at 570 nm using a SpectraMax Paradigm Multi-Mode microplate reader. The relative cell viability was expressed as the mean percentage of viable cells relative to the untreated control cells. All experiments were conducted in triplicate. Percent of the cell-growth inhibition (%) and the IC50 was calculated using IC50 calculation software. […]

caspase-3 = type: cell-based, human
Procedure: as §1, §2, §3, §4
Activities of caspase-3 were measured by enzyme-linked immunosorbent assay (ELISA) using the Invitrogen caspase-3 (Active) (human) ELISA kit (96 tests) from Invitrogen Corporation, following the manufacturer's instructions. […]

[6] = biological target: T2, 5-LOX enzyme (human recombinant) (Homo sapiens, UniProt P09917); assay: 5-Lipoxygenase inhibition assay; type: biochemical; conditions: inhibition at 100 µg/mL
T2 construct: purchased Sigma-Aldrich 437996
T2 sequence (P09917 1-674): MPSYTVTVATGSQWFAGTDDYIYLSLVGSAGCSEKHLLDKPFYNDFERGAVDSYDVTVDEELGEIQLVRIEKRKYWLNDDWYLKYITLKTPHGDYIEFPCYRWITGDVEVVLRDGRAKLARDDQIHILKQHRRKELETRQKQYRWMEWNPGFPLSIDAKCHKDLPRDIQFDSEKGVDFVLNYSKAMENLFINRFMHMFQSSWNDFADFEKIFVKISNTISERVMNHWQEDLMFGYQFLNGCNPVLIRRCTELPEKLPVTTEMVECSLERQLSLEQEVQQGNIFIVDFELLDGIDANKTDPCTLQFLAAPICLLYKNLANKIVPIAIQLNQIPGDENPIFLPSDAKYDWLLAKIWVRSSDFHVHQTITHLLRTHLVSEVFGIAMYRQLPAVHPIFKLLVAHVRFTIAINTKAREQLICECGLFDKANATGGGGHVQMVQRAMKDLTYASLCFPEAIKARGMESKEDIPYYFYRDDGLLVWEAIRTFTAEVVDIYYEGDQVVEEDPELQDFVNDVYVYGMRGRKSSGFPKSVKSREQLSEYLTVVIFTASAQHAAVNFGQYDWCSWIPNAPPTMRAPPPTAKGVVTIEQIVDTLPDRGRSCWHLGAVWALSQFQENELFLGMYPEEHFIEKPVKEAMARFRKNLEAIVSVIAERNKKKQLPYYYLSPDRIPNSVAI
Procedure: different concentrations of 10 μL of each compound or doxorubicin (positive control, in DMSO) for 48 h in a serum free medium prior to the MTT assay. Subsequently, the media were carefully removed, and 40 μL of MTT (2.5 mg/mL) was added to each well and then incubated for an additional 4 h. […] The absorbance was measured at 570 nm using a SpectraMax Paradigm Multi-Mode microplate reader. The relative cell viability was expressed as the mean percentage of viable cells relative to the untreated control cells. […] Percent of the cell-growth inhibition (%) and the IC50 was calculated using IC50 calculation software.
Activities of caspase-3 were measured by enzyme-linked immunosorbent assay (ELISA) using the Invitrogen caspase-3 (Active) (human) ELISA kit (96 tests) from Invitrogen Corporation, following the manufacturer's instructions. Activities of Bcl-2 were measured using the Invitrogen Zymed Bcl-2 ELISA Kit (96 tests) from Invitrogen Corporation, following the manufacturer's instructions [52-54].

α-glucosidase enzyme, sequence (P53341 whole entry): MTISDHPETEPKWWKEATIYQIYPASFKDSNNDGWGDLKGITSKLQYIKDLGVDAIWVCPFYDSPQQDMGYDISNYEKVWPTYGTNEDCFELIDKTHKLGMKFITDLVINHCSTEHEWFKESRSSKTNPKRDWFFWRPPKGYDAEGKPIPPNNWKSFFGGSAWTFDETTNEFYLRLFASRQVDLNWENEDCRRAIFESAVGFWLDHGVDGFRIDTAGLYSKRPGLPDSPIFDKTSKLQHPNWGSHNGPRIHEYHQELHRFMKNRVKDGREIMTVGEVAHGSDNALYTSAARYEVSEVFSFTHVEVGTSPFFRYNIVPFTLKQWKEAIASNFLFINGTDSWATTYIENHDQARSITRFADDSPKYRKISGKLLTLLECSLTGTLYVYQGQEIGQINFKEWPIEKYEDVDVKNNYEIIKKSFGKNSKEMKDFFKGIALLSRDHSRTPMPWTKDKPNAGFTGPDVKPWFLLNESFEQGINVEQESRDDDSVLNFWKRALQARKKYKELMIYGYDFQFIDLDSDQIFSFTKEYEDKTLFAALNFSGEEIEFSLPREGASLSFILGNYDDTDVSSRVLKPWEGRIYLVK

## C[C@H]1O[C@H](O[C@H]2[C@H](O)[C@@H](O)[C@@H](O[C@H]3[C@H](O)[C@@H](O)C(O)O[C@@H]3CO)O[C@@H]2CO)[C@H](O)[C@@H](O)[C@@H]1N[C@H]1C=C(CO)[C@@H](O)[C@H](O)[C@H]1O (stereo partly drawn) [Acarbose]
α-amylase enzyme
  α-Amylase Inhibition (%): 66.90 ± 0.10%
α-glucosidase enzyme
  α-Glucosidase Inhibition (%): 56.65 ± 0.10%

## O=C1O[C@H]([C@@H](O)CO)C(O)=C1O [Ascorbic Acid]
[1]
  IC50 (µg/mL) ABTS: 3.80 ± 0.04 µg/mL (≈ 21.6 µM)
[1]; at 100 µg/mL
  Inhibition (%) ABTS: 70.25 ± 0.11%
[2]
  IRP: 76.75 ± 0.13 µg/mL
[3]
  TAC (mg Gallic Acid/g): 84.50 ± 0.13 mg Gallic Acid/g
[4]
  IC50 (µg/mL) DPPH: 4.29 ± 0.03 µg/mL (≈ 24.4 µM)
[4]; at 100 µg/mL
  Inhibition (%) DPPH: 66.50 ± 0.11%
[5]
  IC50 (µg/mL) NO: 5.51 ± 0.02 µg/mL (≈ 31.3 µM)
[5]; at 100 µg/mL
  Inhibition (%) NO: 60.75 ± 0.11%

## COc1cccc2c1C(=O)c1c(O)c3c(c(O)c1C2=O)C[C@@](O)(C(=O)CO)C[C@@H]3O[C@H]1C[C@H](N)[C@H](O)[C@H](C)O1 [Doxorubicin]
Bcl-2; treated A549 cells, DMSO control 12.58 ± 0.05
  Bcl-2 (ng/mL) A549: 3.27 ± 0.01 ng/mL
Bcl-2; treated Caco-2 cells, DMSO control 5.74 ± 0.08
  Bcl-2 (ng/mL) Caco-2: 1.49 ± 0.02 ng/mL
Bcl-2; treated HepG-2 cells, DMSO control 11.15 ± 0.15
  Bcl-2 (ng/mL) HepG-2: 2.90 ± 0.04 ng/mL
Caco-2 cells
  IC50: 33.3 µg/mL (≈ 61.2 µM)
caspase-3; treated A549 cells, DMSO control 88.67 ± 0.12
  Caspase-3 (pg/mL) A549: 341.39 ± 0.46 pg/mL
caspase-3; treated Caco-2 cells, DMSO control 94.81 ± 0.14
  Caspase-3 (pg/mL) Caco-2: 365.02 ± 0.55 pg/mL
caspase-3; treated HepG-2 cells, DMSO control 108.79 ± 0.85
  Caspase-3 (pg/mL) HepG-2: 418.84 ± 3.27 pg/mL

## CC(c1cc2ccccc2s1)N(O)C(N)=O (stereo not drawn) [Zileuton]
[6]
  5-LOX (%): 55.71 ± 0.11 (Zileuton) %
